In article PMC6351562, “Structure, function, and inhibition of drug reactivating human gut microbial β-glucuronidases” (Scientific Reports, 2019):
“And” between values parts separate entries of the source, which are not always exact repeats. Identical values can stand only once. Like-named read-outs stand apart in the source and are kept apart here.

Tests used:
Assay type in all cases: biochemical
[1] = target: T1, Eubacterium eligens GUS (EeGUS) (Lachnospira eligens, UniProt C4Z6Z2); test: In vitro DCF-G processing assay (UPLC); settings: DCF-G as substrate, 400 µM; pH 6.5; 37 °C
T1 sequence (C4Z6Z2 1-611): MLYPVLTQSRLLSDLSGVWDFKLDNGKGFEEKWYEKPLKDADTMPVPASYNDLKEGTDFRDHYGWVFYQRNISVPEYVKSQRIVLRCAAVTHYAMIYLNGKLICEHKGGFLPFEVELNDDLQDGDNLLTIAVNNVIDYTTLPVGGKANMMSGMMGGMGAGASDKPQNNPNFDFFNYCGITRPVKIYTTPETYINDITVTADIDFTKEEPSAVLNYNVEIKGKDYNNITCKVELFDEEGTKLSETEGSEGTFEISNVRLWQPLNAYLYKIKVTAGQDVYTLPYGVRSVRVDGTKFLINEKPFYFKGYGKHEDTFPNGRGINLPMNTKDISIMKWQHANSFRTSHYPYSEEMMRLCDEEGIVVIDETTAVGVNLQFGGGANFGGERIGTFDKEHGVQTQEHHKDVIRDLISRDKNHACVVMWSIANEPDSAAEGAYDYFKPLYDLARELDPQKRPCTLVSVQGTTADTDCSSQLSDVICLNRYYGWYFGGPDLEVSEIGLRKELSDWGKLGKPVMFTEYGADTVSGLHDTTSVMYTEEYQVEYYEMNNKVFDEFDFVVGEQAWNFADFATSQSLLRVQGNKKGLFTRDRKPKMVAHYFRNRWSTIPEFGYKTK

[2] = target: Clostridium perfringens GUS (CpGUS) (Clostridium perfringens, UniProt Q8VNV4); test: biochemical
[3] = target: T2, Faecalibacterium prausnitzii GUS (FpGUS) (Faecalibacterium duncaniae, UniProt C7H4D2); test: In vitro inhibition assay (pNPG hydrolysis); settings: for IC50: pNPG 900 µM
T2 sequence (C7H4D2 1-608): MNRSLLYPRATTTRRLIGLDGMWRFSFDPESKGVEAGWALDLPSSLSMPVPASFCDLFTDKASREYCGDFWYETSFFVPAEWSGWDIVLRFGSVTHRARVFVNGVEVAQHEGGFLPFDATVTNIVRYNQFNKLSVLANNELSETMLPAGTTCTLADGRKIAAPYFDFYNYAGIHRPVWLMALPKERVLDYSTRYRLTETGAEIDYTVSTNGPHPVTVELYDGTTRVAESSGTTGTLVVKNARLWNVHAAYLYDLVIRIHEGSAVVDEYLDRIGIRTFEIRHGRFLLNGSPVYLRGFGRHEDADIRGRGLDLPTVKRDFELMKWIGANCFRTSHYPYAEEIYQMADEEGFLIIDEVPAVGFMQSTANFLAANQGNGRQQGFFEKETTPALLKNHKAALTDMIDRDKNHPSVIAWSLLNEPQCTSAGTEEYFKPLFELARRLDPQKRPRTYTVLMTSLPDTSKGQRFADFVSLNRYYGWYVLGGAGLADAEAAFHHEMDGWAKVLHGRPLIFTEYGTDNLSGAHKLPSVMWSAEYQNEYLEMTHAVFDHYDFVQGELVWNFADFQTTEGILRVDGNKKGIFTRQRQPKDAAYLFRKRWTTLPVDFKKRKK

[4] = target: T3, Lactobacillus rhamnosus GUS (LrGUS) (Lacticaseibacillus rhamnosus, UniProt A0A2A5L2J1); test: In vitro inhibition assay (pNPG hydrolysis)
T3 sequence (A0A2A5L2J1 1-603): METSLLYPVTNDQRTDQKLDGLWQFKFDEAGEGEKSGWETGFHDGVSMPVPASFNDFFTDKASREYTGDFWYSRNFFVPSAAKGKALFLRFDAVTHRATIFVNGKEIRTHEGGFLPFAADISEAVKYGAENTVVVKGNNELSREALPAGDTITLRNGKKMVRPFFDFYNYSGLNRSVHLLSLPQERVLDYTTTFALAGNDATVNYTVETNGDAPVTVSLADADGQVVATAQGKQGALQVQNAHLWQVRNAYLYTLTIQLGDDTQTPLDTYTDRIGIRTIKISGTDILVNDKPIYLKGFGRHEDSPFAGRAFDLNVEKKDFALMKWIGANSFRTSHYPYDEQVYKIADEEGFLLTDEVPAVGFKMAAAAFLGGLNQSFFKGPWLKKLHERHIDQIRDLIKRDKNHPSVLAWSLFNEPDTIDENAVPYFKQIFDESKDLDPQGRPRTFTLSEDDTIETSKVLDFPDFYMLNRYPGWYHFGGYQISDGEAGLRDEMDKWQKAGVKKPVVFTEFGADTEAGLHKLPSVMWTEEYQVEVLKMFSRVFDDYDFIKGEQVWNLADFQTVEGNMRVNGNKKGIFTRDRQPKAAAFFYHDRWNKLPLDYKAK

[5] = target: T4, Bacteroides dorei GUS (BdGUS) (Phocaeicola dorei, UniProt I9FNR0); test: In vitro inhibition assay (pNPG hydrolysis); settings: for IC50: pNPG 900 µM
T4 sequence (I9FNR0 21-875): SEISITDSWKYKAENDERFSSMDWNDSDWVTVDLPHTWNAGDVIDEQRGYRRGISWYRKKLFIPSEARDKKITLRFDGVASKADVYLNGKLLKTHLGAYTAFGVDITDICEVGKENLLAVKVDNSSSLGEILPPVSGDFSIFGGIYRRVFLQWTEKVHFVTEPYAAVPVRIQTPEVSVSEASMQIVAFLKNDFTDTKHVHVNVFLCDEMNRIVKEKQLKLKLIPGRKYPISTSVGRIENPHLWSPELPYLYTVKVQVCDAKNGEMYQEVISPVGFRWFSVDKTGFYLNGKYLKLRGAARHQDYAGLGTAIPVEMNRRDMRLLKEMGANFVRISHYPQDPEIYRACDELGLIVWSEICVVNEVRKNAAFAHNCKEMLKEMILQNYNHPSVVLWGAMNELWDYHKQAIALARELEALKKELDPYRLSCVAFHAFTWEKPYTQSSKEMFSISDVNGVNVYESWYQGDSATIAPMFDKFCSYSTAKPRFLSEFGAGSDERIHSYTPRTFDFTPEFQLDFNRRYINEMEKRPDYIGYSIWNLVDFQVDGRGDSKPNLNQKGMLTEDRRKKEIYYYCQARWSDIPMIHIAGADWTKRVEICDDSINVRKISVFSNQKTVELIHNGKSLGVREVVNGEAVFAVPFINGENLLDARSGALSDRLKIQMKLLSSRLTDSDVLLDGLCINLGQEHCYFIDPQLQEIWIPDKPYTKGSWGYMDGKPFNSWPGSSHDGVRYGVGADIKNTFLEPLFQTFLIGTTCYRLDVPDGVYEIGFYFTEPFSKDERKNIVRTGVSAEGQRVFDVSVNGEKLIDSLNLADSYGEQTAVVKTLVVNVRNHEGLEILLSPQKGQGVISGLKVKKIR

[6] = Inhibitor 1 (IC50, nM) pH 6.5, pH 6.5
[7] = Inhibitor 1 (IC50, nM) pH 7.5, pH 7.5
[8] = pH 6.5, read-out: UNC10201652 (IC50, nM) pH 6.5
[9] = 100 µM, pH 6.5, read-out: inhibition at 100 µM UNC10201652
[10] = pH 7.5, 1 hour end point, read-out: UNC10201652 (IC50, nM) pH 7.5

O=C(Cc1ccccc1Nc1c(Cl)cccc1Cl)O[C@@H]1O[C@H](C(=O)O)[C@@H](O)[C@H](O)[C@H]1O [DCF-G, Diclofenac acyl β-D-glucuronide]
Apparent kcat [1]: 138 s⁻¹ and 138 ± 2 s⁻¹

CCOc1ccc(NC(=S)N(CCO)Cc2cc3cc(C)cc(C)c3[nH]c2=O)cc1 [Inhibitor 1]
IC50 ([2]; Inhibitor 1 (IC50, nM) pH 6.5): > 100000 nM | IC50 ([2]; Inhibitor 1 (IC50, nM) pH 7.5): > 100000 nM | IC50 [3, 6]: > 100000 nM | IC50 [3, 7]: > 100000 nM | IC50 [4]: > 100000 nM | IC50 ([4]; read-out: Inhibitor 1 (IC50, nM) pH 7.5, pH 7.5, pNPG 900 µM): > 100000 nM | IC50 [5, 6]: > 100000 nM | IC50 [5, 7]: > 100000 nM

C1CCc2c(c(N3CCOCC3)nc3sc4c(N5CCNCC5)nnnc4c23)C1 [UNC10201652]
decrease in potency from pH 7.5 to pH 6.5 [2]: 6 fold | IC50 ([2]; IC50): 26 to 160 nM | IC50 [2, 8]: 160 ± 10 nM | IC50 ([2]; pH 7.5, read-out: UNC10201652 (IC50, nM) pH 7.5): 26 ± 3 nM | inhibition at 100 µM [3, 9]: < 80% | IC50 [3, 8]: > 100000 nM | IC50 [3, 10]: > 3000 nM | IC50 ([4]; pH 7.5, pNPG 900 µM, read-out: UNC10201652 (IC50, nM) pH 7.5): > 100000 nM | IC50 ([4]; read-out: UNC10201652 (IC50, nM) pH 6.5): > 100000 nM | inhibition at 100 µM [5, 9]: < 80% | IC50 [5, 8]: > 100000 nM | IC50 [5, 10]: > 25000 nM
